Experimental data reported in US9810690B2, “Method for screening inhibitors of Ras” (Araxes Pharma LLC, priority 2015, dated 2017).

Legend:
Format in all cases: binding
[1] = target: T1, KRAS D92C/G12D (Homo sapiens, UniProt P01116, D92C/G12D); experiment: Covalent modification of KRAS mutant by competition probes (TOF mass spectrometry, Agilent RapidFire)
T1 construct: made in house
Description: (§1) KRAS mutant proteins were produced with one substituted amino acid selected from E62C, D92C, and H95C and with either glycine at the 12 position (WT) or an additional mutation to aspartic acid at the 12 position (G12D) relative to SEQ ID NO: 1 when optimally aligned. These mutations are depicted on an X-ray crystal structure in FIG. 2. These mutants were tested for reactivity (e.g., covalent modification of the KRAS mutant) with a panel of competition probes that bind the Switch II binding pocket and covalently modify the substituted amino acid with appropriately placed electrophiles based on modeling/docking studies. Screening was carried out by time-of-flight (TOF) mass spectrometry on an Agilent RapidFire system. […] Competition probe reactivity with the G12D mutant or other 12 position mutants may be optimized by iterative structural modification and testing.

[2] = target: T2, KRAS D92C/WT (Homo sapiens, UniProt P01116, D92C); experiment: as above
T2 construct: made in house
Description: as §1

[3] = target: T3, KRAS E62C/G12D (Homo sapiens, UniProt P01116, E62C/G12D); experiment: as above
T3 construct: made in house
Description: as §1

[4] = target: T4, KRAS E62C/WT (Homo sapiens, UniProt P01116, E62C); experiment: as above
T4 construct: made in house
Description: as §1

[5] = target: T5, KRAS H95C/G12D (Homo sapiens, UniProt P01116, G12D/H95C); experiment: as above
T5 construct: made in house
Description: as §1

[6] = target: T6, KRAS H95C/WT (Homo sapiens, UniProt P01116, H95C); experiment: as above
T6 construct: made in house
Description: as §1

[7] = target: T7, RALA G23C (Homo sapiens, UniProt P11233, G23C); experiment: Rate constant of covalent reaction of competition probes with RALA mutant (mass spectrometry)
T7 construct: (residues 11-183, either WT or G23C); hexahistidine (TEV-cleavable); made in house; host or cells: Escherichia coli BL21 (DE)
T7 sequence (P11233 11-183 G23C): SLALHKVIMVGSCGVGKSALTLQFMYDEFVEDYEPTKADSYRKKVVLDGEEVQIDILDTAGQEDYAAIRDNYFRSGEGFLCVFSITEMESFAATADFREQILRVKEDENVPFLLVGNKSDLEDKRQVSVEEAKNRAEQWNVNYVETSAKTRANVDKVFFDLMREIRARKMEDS
Description: Hexahistidine-tagged recombinant human RalA (“hexahistidine” disclosed as SEQ ID NO: 49) (residues 11-183, either WT or G23C) was transformed into Escherichia coli (BL21 (DE)). After the bacterial grew to an OD(600) of 0.4-0.6 in Terrific Broth containing 30 mg/L kanamycin at 37° C., induction was carried out at 18° C. using 0.5 mM IPTG and growth was continued at 18° C. for about 18 h. The bacteria were harvested by centrifugation and the obtained pellet was either stored at −80° C. or used freshly for the subsequent steps.
(§2) RALA mutant proteins were produced with one mutation to cysteine at the 23 position (G23C) relative to SEQ ID NO: 8 when optimally aligned. KRAS mutant proteins were produced with one mutation to cysteine at the 12 position (G12C) relative to SEQ ID NO: 1 when optimally aligned. The RALA and KRAS mutants were tested for reactivity (e.g., covalent modification of the mutant) with a panel of competition probes that bind the Switch II binding pocket and covalently modify the substituted amino acid with appropriately placed electrophiles based on modeling/docking studies. One such inhibitor covalently bound to RAS (via G12) is depicted in FIG. 2. Screening was carried out by mass spectrometry on an Agilent RapidFire or ThermoScientific Q Exactive system.

[8] = target: T8, KRAS G12C (Homo sapiens, UniProt P01116, G12C); experiment: Rate constant of covalent reaction of competition probes with KRAS mutant (mass spectrometry)
T8 construct: made in house
Description: as §2

Compound	% Covalent Modification with Indicated Protein at 6 hr, D92C/G12D ([1]; probe 30 μM) [%]	% Covalent Modification with Indicated Protein at 6 hr, D92C/WT ([2]; probe 30 μM) [%]	% Covalent Modification with Indicated Protein at 6 hr, E62C/G12D ([3]; probe 30 μM) [%]	% Covalent Modification with Indicated Protein at 6 hr, E62C/WT ([4]; probe 30 μM) [%]	% Covalent Modification with Indicated Protein at 6 hr, H95C/G12D ([5]; probe 30 μM) [%]	Rate Constant for Reaction with Indicated Protein, RALA G23C [7] [M⁻¹ s⁻¹]	Rate Constant for Reaction with Indicated Protein, KRAS G12C [8] [M⁻¹ s⁻¹]	also measured
C=CS(=O)(=O)NC1CCCN(c2nc(N3CCN(C(C)=O)CC3)c3cc(Cl)c(-c4c(O)cccc4F)c(F)c3n2)C1 (centres unmarked) [CP-001]	12	97	4	72	60			
C=CC(=O)NC1CCCN(c2nc(N3CCN(C(C)=O)CC3)c3cc(Cl)c(-c4c(O)cccc4F)c(F)c3n2)C1 (centres unmarked) [CP-002]								% Covalent Modification with Indicated Protein at 6 hr, D92C/WT ([2]; probe 100 μM): 2%; % Covalent Modification with Indicated Protein at 6 hr, E62C/G12D ([3]; probe 100 μM): 1%; % Covalent Modification with Indicated Protein at 6 hr, E62C/WT ([4]; probe 100 μM): 6%; % Covalent Modification with Indicated Protein at 6 hr, H95C/G12D ([5]; probe 100 μM): 5%
C=CS(=O)(=O)NC1CCN(c2nc(N3CCN(C(C)=O)CC3)c3cc(Cl)c(-c4c(O)cccc4F)c(F)c3n2)C1 (centres unmarked) [CP-003]	8	89	11	86	12			
C=CC(=O)NC1CCN(c2nc(N3CCN(C(C)=O)CC3)c3cc(Cl)c(-c4c(O)cccc4F)c(F)c3n2)C1 (centres unmarked) [CP-004]								% Covalent Modification with Indicated Protein at 6 hr, D92C/WT ([2]; probe 100 μM): 4%; % Covalent Modification with Indicated Protein at 6 hr, E62C/G12D ([3]; probe 100 μM): 1%; % Covalent Modification with Indicated Protein at 6 hr, E62C/WT ([4]; probe 100 μM): 3%; % Covalent Modification with Indicated Protein at 6 hr, H95C/G12D ([5]; probe 100 μM): 2%
C=CS(=O)(=O)N1CCC(Nc2nc(N3CCN(C(C)=O)CC3)c3cc(Cl)c(-c4c(O)cccc4F)c(F)c3n2)CC1 [CP-005]	11	28	6	82	12			% Covalent Modification with Indicated Protein at 6 hr, H95C/WT ([6]; probe 30 μM): 21%
C=CC(=O)N1CCC(Nc2nc(N3CCN(C(C)=O)CC3)c3cc(Cl)c(-c4c(O)cccc4F)c(F)c3n2)C1 (centres unmarked) [CP-006]	5	93	2	14	4			% Covalent Modification with Indicated Protein at 6 hr, H95C/WT ([6]; probe 30 μM): 19%
C=CS(=O)(=O)N1CCC(Nc2nc(N3CCN(C(C)=O)CC3)c3cc(Cl)c(-c4c(O)cccc4F)c(F)c3n2)C1 (centres unmarked) [CP-007]								% Covalent Modification with Indicated Protein at 6 hr, D92C/G12D ([1]; probe 10 μM): 29%; % Covalent Modification with Indicated Protein at 6 hr, D92C/WT ([2]; probe 10 μM): 99%; % Covalent Modification with Indicated Protein at 6 hr, E62C/G12D ([3]; probe 10 μM): 19%; % Covalent Modification with Indicated Protein at 6 hr, E62C/WT ([4]; probe 10 μM): 96%; % Covalent Modification with Indicated Protein at 6 hr, H95C/G12D ([5]; probe 10 μM): 17%; % Covalent Modification with Indicated Protein at 6 hr, H95C/WT ([6]; probe 10 μM): 43%
C=CC(=O)N1CC(N2CCN(C(=O)CNc3cc(C4(C)CC4)c(Cl)cc3O)CC2)C1 [CP-008]						<0.2	76	
C=CC(=O)N1CCN(c2ccc(-c3cc(O)ccc3Cl)cc2C#N)CC1 [CP-009]						<0.2	5.8	
C=CC(=O)N1CCN(C(=O)c2cc(-c3cc(Cl)ccc3Cl)c(Cl)cc2O)CC1 [CP-010]						2.9	2.3	
C=CC(=O)N1CCN(c2ncnc3cc(Cl)c(-c4ccccc4Cl)cc23)CC1 [CP-011]						5.0	1.1	
